The source of these data is paper PMC9427252, “Study on the Absorption of Arsenic Species in Realgar Based on the Form and Valence” (Evidence-based Complementary and Alternative Medicine : eCAM, 2022).

Like-named read-outs stand apart in the source and are kept apart here.

Data set [1] concerns duodenum, jejunum, and ileum.
In the next data set the test system is Caco-2 cells. The conditions noted are these: A to B, realgar artificial intestinal dissolved solution.
The mark [2] stands for this setting: rat plasma, oral 0.1 g/kg realgar.

What is called Cmax is the maximum level reached in the sampled fluid or tissue. For orientation: Tmax means the time at which the peak concentration occurs.

As to `O[As](O)O` [AsIII, Arsenite], where the note is “rat, in vivo, po, 0.1 g/kg”, the “MRT(0-∞)” value is 9.649 h.
As for `O=[As](O)(O)O` [AsV, Arsenate], the Cout/Cin in data set [1] (duodenum and jejunum) is on record as greater than 1; in data set [1] (ileum), less than 1; in data set [1] (realgar intestinal perfusate, duodenum, time 15), 3.14 ± 0.81; in data set [1] (realgar intestinal perfusate, duodenum, time 30) it was 3.16 ± 0.91; in data set [1] (realgar intestinal perfusate, duodenum, time 45), 3.01 ± 0.96; in data set [1] (realgar intestinal perfusate, duodenum, time 60), 3.20 ± 1.04. The Cout/Cin is recorded as 3.17 ± 0.86 in data set [1] (realgar intestinal perfusate, duodenum, time 75); 0.78 ± 0.11 in data set [1] (realgar intestinal perfusate, ileum, time 15); 0.77 ± 0.10 in data set [1] (realgar intestinal perfusate, ileum, time 30); 0.76 ± 0.12 in data set [1] (realgar intestinal perfusate, ileum, time 45); 0.78 ± 0.11 in data set [1] (realgar intestinal perfusate, ileum, time 60); 0.80 ± 0.13 in data set [1] (realgar intestinal perfusate, ileum, time 75). The Cout/Cin in data set [1] (realgar intestinal perfusate, jejunum, time 15) is 1.54 ± 0.46; in data set [1] (realgar intestinal perfusate, jejunum, time 30) it was 1.46 ± 0.39; in data set [1] (realgar intestinal perfusate, jejunum, time 45), 1.50 ± 0.28; in data set [1] (realgar intestinal perfusate, jejunum, time 60), 1.34 ± 0.25; in data set [1] (realgar intestinal perfusate, jejunum, time 75), 1.28 ± 0.24. Also, the “AUC(0-24)” value under setting [2] came to 47.310 ng·h/mL. In addition, the “AUC(0-∞)” value under setting [2] was determined as 47.687 ng·h/mL. Under setting [2], this compound yielded a Cmax of 21.626 ng/L. Moreover, the “MRT(0-∞)” value under setting [2] is recorded as 2.790 h. Besides, under setting [2], the Tmax worked out at 23.6 min. The compound also displayed a t1/2 under setting [2] of 1.775 h. The Cumulative transport amount was 0.23 ± 0.07 ng in the data set on Caco-2 cells (30 min); 0.41 ± 0.06 ng in the data set with Caco-2 cells (60 min); 1.01 ± 0.16 ng in the data set on Caco-2 cells (90 min); 0.84 ± 0.02 ng with Caco-2 cells (120 min); 1.20 ± 0.15 ng in the data set with Caco-2 cells (180 min).
